Results on two compounds are retold here after paper PMC4324968, “High-Affinity Accumulation of a Maytansinoid in Cells via Weak Tubulin Interaction” (PLoS ONE, 2015).

In assay [1] the target is T1, tubulin (αβ-heterodimer, bovine brain; maytansine site on β-tubulin).
T1 construct: with α-tubulin (αβ-heterodimer)
Description: equilibrium radioligand binding of 3H-S-methyl DM1 to tubulin-loaded liposomes (apparent Kd). Also on record: species or system Bos taurus.

The test system of assay [2] is T2, tubulin (microtubule-assembled, in MCF7 cells).
T2 construct: endogenous cellular tubulin in MCF7 cells; with αβ-heterodimer in microtubules
Description: 3H-paclitaxel equilibrium binding to MCF7 cells, Scatchard. The assay is classed as cell-based.

For `COc1cc2cc(c1Cl)N(C)C(=O)C[C@H](OC(=O)[C@H](C)N(C)C(=O)CCSC)[C@]1(C)O[C@H]1[C@H](C)[C@@H]1C[C@@](O)(NC(=O)O1)[C@H](OC)/C=C/C=C(\C)C2` [S-methyl DM1], the Kd in assay [1] stood at 21.5 ± 0.07 nM.

`CC(=O)O[C@H]1C(=O)[C@@]2(C)[C@H]([C@H](OC(=O)c3ccccc3)[C@]3(O)C[C@H](OC(=O)[C@H](O)[C@@H](NC(=O)c4ccccc4)c4ccccc4)C(C)=C1C3(C)C)[C@]1(OC(C)=O)CO[C@@H]1C[C@@H]2O` [paclitaxel] returned a Kd in assay [2] of 60 ± 10 nM.
